# Source: patent US9765029B2, “Pyridine compounds as sodium channel blockers” (Purdue Pharma L.P., priority 2010, dated 2017)
# System: FCA-induced inflammation of the rat hind paw
# Assay: Freund's complete adjuvant (FCA) model of inflammatory pain, paw withdrawal threshold (PWT)
# Format: in vivo
# Experimental: Test Animals: Each experiment uses rats weighing between 200-260 g at the start of the experiment. The rats are group-housed and have free access to food and water at all times, except prior to oral administration of a test compound when food is removed for 16 hours before dosing. A control group acts as a comparison to rats treated with a compound of Formulae I-XIII. The control group is administered the carrier as used for the test compound. The volume of carrier administered to the control group is the same as the volume of carrier and test compound administered to the test group.
# To assess the actions of the compounds of Formulae I-XIII on the treatment of inflammatory pain the Freund's complete adjuvant (“FCA”) model of inflammatory pain was used. […] 24 hour post injection, the animal was assessed for response to noxious mechanical stimuli by determining the paw withdrawal threshold (PWT), or to noxious thermal stimuli by determining the paw withdrawal latency (PWL), as described below. […] Responses to noxious mechanical or thermal stimuli were determined 1, 3, and 5 hours post administration (admin). […]
# Sensitivity to noxious mechanical stimuli can be measured in animals using the paw pressure test to assess mechanical hyperalgesia. […] PWT is determined once for each rat at each time point. PWT can be measured only in the injured paw, or in both the injured and non-injured paw. […]
compound,measurement,setting,value
"NC(=O)[C@H](CO)NC(=O)c1cccc(-c2ccc(Oc3ccc(F)cc3)cc2)n1 [Compound 47, 6-[4-(4-fluoro-phenoxy)-phenyl]-pyridine-2-carboxylic acid ((S)-1-carbamoyl-2-hydroxy-ethyl)-amide]",increase in PWT,"10 mg/kg oral (PO), 3 h",statistically significant increase
same,increase in PWT,"30 mg/kg oral (PO), 1, 3 and 5 h",statistically significant increase
